In test [1] the test system is soybean. In words: Greenhouse soybean pot trial with magnesium lactate. It is filed as in vivo. The procedure: Materials and Methods: One soybean seed was planted in each of the 60 individually marked pots using six different treatments in a randomized complete block design. Plants were grown in the greenhouse under controlled and ideal conditions. All pots were handled and cared for the same exact way throughout their entire growing season. Several measurements were recorded during this trial starting with emergence hours, the number of plants emerged, and unifoliate, 1st trifoliate, 3rd trifoliate, 5th trifoliate, and 7th trifoliate leaf area readings. […] of the measurements that were recorded when this trial was harvested are the number of pods, weight of pods, total soybean seed weight per treatment, and average soybean seed weight per pot.
The magnesium lactate improved the efficiency with which the plant builds chlorophyll when it was applied foliar in sparingly small quantities to soybean plants early in their growth stage.

Test [2] has as its system corn. As to the kind of experiment: Greenhouse corn pot trial with magnesium lactate. It is filed as in vivo. The procedure: The corn trial that was conducted using MgL had one corn seed planted in each of the 60 individually marked pots using six different treatments in a randomized complete block design. Plants were grown in the greenhouse under controlled and ideal conditions. All pots were handled and cared for the same exact way throughout their entire growing season. During this trial the emergence hours, the number of plants emerged, and plant height measurements were taken at specific plant stages and recorded. Several measurements were documented when the trial was harvested which were V10 plant height, V10 chlorophyll readings, stalk diameter, and biomass.

For the molecule `CC(O)C(=O)[O-].CC(O)C(=O)[O-].[Mg+2]` (stereo not drawn) [MgL, magnesium lactate], the “efficiency with which the plant builds chlorophyll” value in test [1] (applied foliar in sparingly small quantities to soybean plants early in their growth stage) is recorded as “improved”. In test [1] (greenhouse pots, FIG. 8), the “soybean yield (average soybean seed weight per pot)” value is reported as “positive impact”. Further, the “overall performance in comparison to conventional magnesium compounds, such magnesium sulfate (MgSO)” value in test [1] (soybean trial) and in test [2] (corn trial) was “performed better overall” throughout. Besides, the corn biomass entry in test [2] (greenhouse pots, FIG. 14) is given as “positive impact”. Moreover, the “growth and development of corn” value in test [2] (greenhouse pots, FIGS. 10-14) was “positive impact”.

Source of the values: US20230329140A1, “MAC[…]” (Ralco Nutrition Inc., priority 2019, published 2023).
